Results on two compounds are retold here after patent US20050234113A1, “Antioxidant and radical scavenging activity of synthetic analogs of desferrithiocin” (University of Florida Research Foundation, Inc., priority 2002, published 2005).

A short description of assay [1]: Quenching of the ABTS radical cation. As to conditions: Table 5; 6-min reaction, initial OD 1.000.
Assay [2] deals with iron. The assay can be described thus: Iron clearance in the non iron-overloaded, bile duct-cannulated rodent model. In kind it is in vivo, Sprague-Dawley rats. The procedure:
Briefly, male Sprague-Dawley rats averaging 450 g were housed in Nalgene plastic metabolic cages during the experimental period and given free access to water. The animals were anesthetized using sodium pentobarbital (55 mg/kg) administered intraperitoneally. The bile duct was cannulated using 22-gauge polyethylene tubing. The cannula was inserted into the duct about 1 cm from the duodenum and tied snugly in place. After threading through the shoulder, the cannula was passed from the rat to the swivel inside a metal torque-transmitting tether, which was attached to a rodent jacket around the animal's chest. The cannula was directed from the rat to a Gilson microfraction collector (Middleton, Wis.) by a fluid swivel mounted above the metabolic cage. Bile samples were collected at 3 hour intervals for 24 hours. The urine sample was taken at 24 hours and handling was as previously described. (Bergeron, R. J., et al., J. Med. Chem. 34:2072-2078 (1991).
(§1) The iron chelators were solubilized in 40% Cremophor RH-40/water (v/v) and given orally and subcutaneously to the rats at the doses shown in Table 4. In the primates, DFO was dissolved in sterile H2O at a concentration of 50 or 100 mg/mL and given orally or subcutaneously at a volume of 1 ml/kg. The desferrithiocin analogues were solubilized in 40% Cremophor RH-40/water (v/v) and given orally to the monkeys at the doses shown in Table 4. However, the desferrithiocin analogues were administered subcutaneously as either a suspension in distilled H2O or as their sodium salts in solution as indicated in Table 4.
(§2) Iron clearance studies were carried out both in the non iron-overloaded, bile duct-cannulated rodent model and in the iron-overloaded Cebus apella monkey, and the results are reported as iron clearing efficiency (Table 4). This number is generated by dividing the net iron clearance [total iron excretion (bile or stool plus urine) minus background] by the theoretical iron clearance and multiplying by 100. The theoretical iron clearance is based on a 2:1 metal complex stoichiometry for 4′-(HO)-DADMDFT, a 1:1 stoichiometry for DFO, and a 1:1 stoichiometry for BDU, as shown in the Job's plot (FIG. 5). Data are presented as the mean±the standard error of the mean. The drugs were administered both orally (po) and subcutaneously (sc) to the rodents and primates; the positive control was DFO.

Assay [3] relates to iron. The assay can be described thus: Iron clearance in the iron-overloaded Cebus apella monkey. In kind it is in vivo. As to conditions: 300 μmol/kg sc, as sodium salt. Here is the method:
The monkeys were iron overloaded with intravenous iron dextran to provide about 500 mg iron per kg body weight. The serum transferrin iron saturation rose to between 70 and 80%. At least twenty half-lives, sixty days, elapsed before any of the animals were used in experiments evaluating iron-chelating agents.
Fecal and urine samples were collected at 24 hour intervals and processed. Briefly, the collections began 4 days prior to the administration of the test drug and continued for an additional 5 days after the drug was given. Iron concentrations were determined by flame atomic absorption spectroscopy.
as §1, §2

Assay [4] deals with iron. As to conditions: cited from earlier work.

Molecules are shown by their SMILES. Values joined by “and” are separate entries in the source; they are usually repeats but may differ in a detail not shown here. Equal values may be shown once. Read-outs that look alike come from different tables or passages of the source. Marks after values point to notes of the source that are not given here.

Take `O=C(O)[C@H]1CSC(c2ccc(O)cc2O)=N1` [4′-(HO)-DADMDFT, 4′-hydroxydesazadesmethyldesferrithiocin]: the “Slope × 10^3 OD units/μM (ABTS radical cation quenching)” value in assay [1] was −102 × 10^3 OD units/μM. In the assay on iron [2] (300 μmol/kg po), the “% bile (of iron excreted), rodents” value is listed as 100%; the “% urine (of iron excreted), rodents” value was 0%; the “efficiency in rodents (%)” value came to 2.9±2.8%. In the assay with iron [2] (300 μmol/kg sc), the “% bile (of iron excreted), rodents” value is listed as 90%; the “% urine (of iron excreted), rodents” value is on record as 10%; the “efficiency in rodents (%)” value was determined as 2.1±0.9%. For the same compound, in the assay with iron [3], the “% stool (of iron excreted), monkeys” value was found to be 75%; the “% urine (of iron excreted), monkeys” value came to 25%; the “efficiency in monkeys (%)” value is 5.3±1.7% and 5.3 ± 1.7^g %.

Turning to `CC(=O)N(O)CCCCCNC(=O)CCC(=O)N(O)CCCCCNC(=O)CCC(=O)N(O)CCCCCN` [DFO, Desferrioxamine B, reference compound], in the assay with iron [4] (150 μmol/kg po, n = 3), the “% bile (of iron excreted), rodents” value is on record as 87%; the “% urine (of iron excreted), rodents” value was 13%; the “efficiency in rodents (%)” value was 1.1 ± 0.6^c %. Besides, in the assay on iron [4] (150 μmol/kg sc, n = 6), the “% bile (of iron excreted), rodents” value is reported as 75%; the “% urine (of iron excreted), rodents” value is given as 25%; the “efficiency in rodents (%)” value is reported as 2.8 ± 0.7%.
